Active and inactive are the calls of the source.
Legend:
[1] = non-specific 3'UTR reporter inhibition in Clone20-Shn3RL – cell-based, Renilla luciferase, cherry-picked, counter-screen for Shn3 inhibitor project, dose response (AID 624133); format: functional
[2] = biological target: T1, Neuropeptide Y receptor type 2 (Homo sapiens, UniProt P49146); test: IC50 for human NPY-Y2 blockade – cell-based, counter-screen for NPY-Y1 antagonist project, dose response (AID 1278); format: functional
T1 sequence (P49146 whole entry): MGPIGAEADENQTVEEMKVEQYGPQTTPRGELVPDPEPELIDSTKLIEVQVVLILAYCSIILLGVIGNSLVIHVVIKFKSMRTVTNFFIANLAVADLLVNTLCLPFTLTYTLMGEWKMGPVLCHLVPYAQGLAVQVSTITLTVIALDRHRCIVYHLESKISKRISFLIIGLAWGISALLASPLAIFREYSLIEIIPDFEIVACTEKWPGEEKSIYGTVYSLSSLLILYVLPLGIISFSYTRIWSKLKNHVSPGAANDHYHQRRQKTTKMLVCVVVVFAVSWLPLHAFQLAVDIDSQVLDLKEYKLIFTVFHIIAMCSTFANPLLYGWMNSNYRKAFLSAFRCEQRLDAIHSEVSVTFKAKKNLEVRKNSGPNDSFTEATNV

[3] = biological target: T2, Sphingosine 1-phosphate receptor 2 (Homo sapiens, UniProt O95136); test: Dose Response Cell Based Assay for Antagonists of the S1P2 Receptor. [Related pubchem assays: 856, 736 ]; format: functional
T2 sequence (O95136 whole entry): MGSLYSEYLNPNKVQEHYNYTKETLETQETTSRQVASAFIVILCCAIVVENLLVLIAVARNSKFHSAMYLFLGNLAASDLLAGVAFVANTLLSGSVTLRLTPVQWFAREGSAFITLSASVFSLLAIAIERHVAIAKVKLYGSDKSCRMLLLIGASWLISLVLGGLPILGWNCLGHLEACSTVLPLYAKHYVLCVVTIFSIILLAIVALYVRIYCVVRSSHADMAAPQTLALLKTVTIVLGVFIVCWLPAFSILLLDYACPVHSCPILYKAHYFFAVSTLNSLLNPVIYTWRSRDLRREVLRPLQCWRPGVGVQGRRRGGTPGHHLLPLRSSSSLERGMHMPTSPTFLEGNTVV

[4] = loss of viability in HepG2 cells – cell-based, CellTiter-Glo, cherry-picked, cytotoxicity control for Shn3 inhibitor project, dose response (AID 624134); format: functional
[5] = reduction of Shn3 3'UTR-driven luciferase in osteoblasts – cell-based, Clone20 osteoblasts, firefly luciferase, cherry-picked, dose response (AID 624132); format: functional;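 note: firefly luciferase luminescence from reporter carrying the Shn3 3'UTR in osteoblasts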
[6] = biological target: T3, Neuropeptide Y receptor type 1 (Homo sapiens, UniProt P25929); test: IC50 of human NPY-Y1 blockers – cell-based, dose response (AID 1277); format: functional
T3 sequence (P25929 whole entry): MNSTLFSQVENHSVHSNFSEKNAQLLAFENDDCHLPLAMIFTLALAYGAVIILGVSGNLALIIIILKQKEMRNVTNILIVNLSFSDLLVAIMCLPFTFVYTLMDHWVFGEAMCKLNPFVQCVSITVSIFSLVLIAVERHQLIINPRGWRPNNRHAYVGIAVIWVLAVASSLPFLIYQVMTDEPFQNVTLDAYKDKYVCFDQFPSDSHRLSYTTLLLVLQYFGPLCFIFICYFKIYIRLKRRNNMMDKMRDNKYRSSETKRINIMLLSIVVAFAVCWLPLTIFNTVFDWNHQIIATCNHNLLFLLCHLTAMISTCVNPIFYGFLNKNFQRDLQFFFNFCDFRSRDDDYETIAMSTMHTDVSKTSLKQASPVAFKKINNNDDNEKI

Cytochrome P450 2C19 = Cytochrome P450 2C19 (Homo sapiens, UniProt P33261); test: qHTS Assay for Inhibitors and Substrates of Cytochrome P450 2C19. [Related pubchem assays: 410 ]; format: ADME; conditions: read-out: Potency
Sequence of Cytochrome P450 2C19 (P33261 whole entry): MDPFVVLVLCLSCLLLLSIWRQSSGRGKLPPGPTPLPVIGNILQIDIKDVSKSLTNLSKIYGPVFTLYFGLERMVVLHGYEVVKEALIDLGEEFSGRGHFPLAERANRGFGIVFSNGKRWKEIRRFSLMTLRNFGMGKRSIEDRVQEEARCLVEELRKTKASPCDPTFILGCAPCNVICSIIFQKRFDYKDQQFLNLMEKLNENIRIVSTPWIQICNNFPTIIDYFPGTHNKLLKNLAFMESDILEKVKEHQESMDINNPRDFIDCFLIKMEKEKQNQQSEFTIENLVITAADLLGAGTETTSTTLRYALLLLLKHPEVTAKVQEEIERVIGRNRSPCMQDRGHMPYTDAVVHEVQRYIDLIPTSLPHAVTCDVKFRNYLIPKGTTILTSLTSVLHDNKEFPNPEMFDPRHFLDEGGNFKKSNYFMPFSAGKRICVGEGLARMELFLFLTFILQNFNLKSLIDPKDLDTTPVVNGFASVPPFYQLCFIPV

[7] = viability loss in HeLa cells – cytotoxicity control for MgcRacGAP inhibitor project, dose response (AID 624300); format: functional
[8] = biological target: T4, Rac GTPase-activating protein 1 (Homo sapiens, UniProt Q9H0H5); test: blockers of MgcRacGAP-driven Rac1 GTP hydrolysis – biochemical, ADP Hunter fluorescence, primary and confirmatory, confirmation (AID 624330); format: functional
T4 sequence (Q9H0H5 whole entry): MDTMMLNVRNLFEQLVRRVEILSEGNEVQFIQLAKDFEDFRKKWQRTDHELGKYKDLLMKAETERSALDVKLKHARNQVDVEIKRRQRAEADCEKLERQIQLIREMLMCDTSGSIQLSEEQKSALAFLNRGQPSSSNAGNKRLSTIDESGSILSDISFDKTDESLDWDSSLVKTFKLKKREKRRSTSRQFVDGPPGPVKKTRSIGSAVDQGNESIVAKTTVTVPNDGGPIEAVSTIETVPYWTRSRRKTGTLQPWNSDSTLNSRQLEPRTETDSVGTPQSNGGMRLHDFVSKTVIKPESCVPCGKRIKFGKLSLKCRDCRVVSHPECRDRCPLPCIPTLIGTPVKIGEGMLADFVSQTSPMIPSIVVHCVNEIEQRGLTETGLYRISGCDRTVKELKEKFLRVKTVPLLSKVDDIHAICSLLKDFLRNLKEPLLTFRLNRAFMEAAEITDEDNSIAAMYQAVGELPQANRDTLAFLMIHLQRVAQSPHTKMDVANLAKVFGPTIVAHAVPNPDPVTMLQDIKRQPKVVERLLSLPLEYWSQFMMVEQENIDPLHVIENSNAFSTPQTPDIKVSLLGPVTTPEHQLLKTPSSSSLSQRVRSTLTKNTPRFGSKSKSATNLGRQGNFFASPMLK

Vero = test: inhibition of WNV-induced cytopathic effect – cell-based, CPE readout (AID 1621); format: functional; conditions: Chlorocebus sabaeus
14-3-3 protein gamma = 14-3-3 protein gamma (Homo sapiens, UniProt P61981); test: modulators of 14-3-3 gamma client binding – dose response (AID 711); format: functional
Sequence of 14-3-3 protein gamma (P61981 whole entry): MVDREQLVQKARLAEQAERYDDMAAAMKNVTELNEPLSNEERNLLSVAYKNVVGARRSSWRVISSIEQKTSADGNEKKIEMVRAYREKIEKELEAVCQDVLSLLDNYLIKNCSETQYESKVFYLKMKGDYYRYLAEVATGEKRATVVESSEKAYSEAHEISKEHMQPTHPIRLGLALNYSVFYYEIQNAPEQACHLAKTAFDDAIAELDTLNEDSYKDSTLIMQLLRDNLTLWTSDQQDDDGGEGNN

[9] = biological target: T2, Sphingosine 1-phosphate receptor 2; test: Dose Response Cell Based Assay for Agonists of the S1P2 Receptor. [Related pubchem assays: 729, 736, 843 ]; format: functional
[10] = biological target: T2, Sphingosine 1-phosphate receptor 2; test: Dose Response Cell Based Assay for Agonists of the S1P2 Receptor of Purchased Analogues. [Related pubchem assays: 729, 843, 854, 736 ]; format: functional
[11] = biological target: Diphosphomevalonate decarboxylase (Streptococcus pneumoniae serotype 2 (strain D39 / NCTC 7466), UniProt Q9FD53); test: diphosphomevalonate decarboxylase inhibitor confirmation – biochemical, cuvette format, coupled NADH fluorescence (AID 1028); format: functional
Sequence of Diphosphomevalonate decarboxylase (Q9FD53 whole entry): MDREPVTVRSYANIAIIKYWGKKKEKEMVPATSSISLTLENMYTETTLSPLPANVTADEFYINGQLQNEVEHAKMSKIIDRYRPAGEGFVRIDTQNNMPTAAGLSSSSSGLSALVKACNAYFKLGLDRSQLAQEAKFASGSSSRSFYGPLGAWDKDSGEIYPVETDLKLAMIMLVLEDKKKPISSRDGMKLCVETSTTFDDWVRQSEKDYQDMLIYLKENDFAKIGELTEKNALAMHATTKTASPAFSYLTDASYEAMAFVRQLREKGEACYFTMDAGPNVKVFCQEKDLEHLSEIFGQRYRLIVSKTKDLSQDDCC

[12] = biological target: Lytic switch protein BZLF1 (Epstein-Barr virus (strain B95-8) (HHV-4) (Human herpesvirus 4), UniProt P03206); test: inhibition of BZLF1 ZTA DNA binding – biochemical, fluorescence polarization, Epstein-Barr virus, 1536-well, counter-screen for EBNA-1 inhibitor project, dose response (AID 2377); parameters: species or system human gammaherpesvirus 4;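 note: fluorescence polarization of Cy5-labelled ZRE DNA probe bound by purified Zta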
Sequence of Lytic switch protein BZLF1 (P03206 whole entry): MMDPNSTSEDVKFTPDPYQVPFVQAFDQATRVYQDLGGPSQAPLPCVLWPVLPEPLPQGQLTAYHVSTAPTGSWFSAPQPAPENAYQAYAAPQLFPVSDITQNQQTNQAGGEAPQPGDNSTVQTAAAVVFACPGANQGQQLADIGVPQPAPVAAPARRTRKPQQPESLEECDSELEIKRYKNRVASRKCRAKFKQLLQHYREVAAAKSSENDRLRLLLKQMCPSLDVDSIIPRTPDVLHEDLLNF

[13] = biological target: Epstein-Barr nuclear antigen 1 (Epstein-Barr virus (strain B95-8) (HHV-4) (Human herpesvirus 4), UniProt P03211); test: inhibition of EBV nuclear antigen 1 DNA binding – biochemical, fluorescence polarization, 1536-well, dose response (AID 2381); parameters: species or system human gammaherpesvirus 4;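 note: fluorescence polarization of a Cy5 DNA probe bound by EBNA-1 protein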
Sequence of Epstein-Barr nuclear antigen 1 (P03211 whole entry): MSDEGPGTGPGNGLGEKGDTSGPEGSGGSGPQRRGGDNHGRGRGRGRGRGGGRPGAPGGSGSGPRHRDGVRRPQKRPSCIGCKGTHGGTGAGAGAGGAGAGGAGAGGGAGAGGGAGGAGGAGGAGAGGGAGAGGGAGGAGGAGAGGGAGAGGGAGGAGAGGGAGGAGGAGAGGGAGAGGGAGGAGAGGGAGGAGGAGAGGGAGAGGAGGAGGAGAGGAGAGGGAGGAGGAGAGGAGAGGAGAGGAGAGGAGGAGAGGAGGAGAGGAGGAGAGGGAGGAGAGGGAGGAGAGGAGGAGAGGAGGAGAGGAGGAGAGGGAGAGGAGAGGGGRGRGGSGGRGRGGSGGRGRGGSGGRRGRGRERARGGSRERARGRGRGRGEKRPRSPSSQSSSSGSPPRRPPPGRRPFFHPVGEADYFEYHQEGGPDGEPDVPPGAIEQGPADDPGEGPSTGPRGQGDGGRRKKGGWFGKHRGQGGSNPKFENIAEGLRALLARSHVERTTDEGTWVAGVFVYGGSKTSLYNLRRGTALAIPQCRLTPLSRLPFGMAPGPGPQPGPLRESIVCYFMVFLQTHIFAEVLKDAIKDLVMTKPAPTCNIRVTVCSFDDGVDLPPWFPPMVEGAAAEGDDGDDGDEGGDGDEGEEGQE

Aminopeptidase N = biological target: T5, Aminopeptidase N (Plasmodium falciparum FcB1/Columbia, UniProt O96935); test: malaria alanyl aminopeptidase activity blockers – biochemical, fluorogenic H-Leu-NHMec substrate, 1536-well (AID 1445); parameters: species or system Plasmodium falciparum 3D7, 3D7
T5 sequence (O96935 whole entry): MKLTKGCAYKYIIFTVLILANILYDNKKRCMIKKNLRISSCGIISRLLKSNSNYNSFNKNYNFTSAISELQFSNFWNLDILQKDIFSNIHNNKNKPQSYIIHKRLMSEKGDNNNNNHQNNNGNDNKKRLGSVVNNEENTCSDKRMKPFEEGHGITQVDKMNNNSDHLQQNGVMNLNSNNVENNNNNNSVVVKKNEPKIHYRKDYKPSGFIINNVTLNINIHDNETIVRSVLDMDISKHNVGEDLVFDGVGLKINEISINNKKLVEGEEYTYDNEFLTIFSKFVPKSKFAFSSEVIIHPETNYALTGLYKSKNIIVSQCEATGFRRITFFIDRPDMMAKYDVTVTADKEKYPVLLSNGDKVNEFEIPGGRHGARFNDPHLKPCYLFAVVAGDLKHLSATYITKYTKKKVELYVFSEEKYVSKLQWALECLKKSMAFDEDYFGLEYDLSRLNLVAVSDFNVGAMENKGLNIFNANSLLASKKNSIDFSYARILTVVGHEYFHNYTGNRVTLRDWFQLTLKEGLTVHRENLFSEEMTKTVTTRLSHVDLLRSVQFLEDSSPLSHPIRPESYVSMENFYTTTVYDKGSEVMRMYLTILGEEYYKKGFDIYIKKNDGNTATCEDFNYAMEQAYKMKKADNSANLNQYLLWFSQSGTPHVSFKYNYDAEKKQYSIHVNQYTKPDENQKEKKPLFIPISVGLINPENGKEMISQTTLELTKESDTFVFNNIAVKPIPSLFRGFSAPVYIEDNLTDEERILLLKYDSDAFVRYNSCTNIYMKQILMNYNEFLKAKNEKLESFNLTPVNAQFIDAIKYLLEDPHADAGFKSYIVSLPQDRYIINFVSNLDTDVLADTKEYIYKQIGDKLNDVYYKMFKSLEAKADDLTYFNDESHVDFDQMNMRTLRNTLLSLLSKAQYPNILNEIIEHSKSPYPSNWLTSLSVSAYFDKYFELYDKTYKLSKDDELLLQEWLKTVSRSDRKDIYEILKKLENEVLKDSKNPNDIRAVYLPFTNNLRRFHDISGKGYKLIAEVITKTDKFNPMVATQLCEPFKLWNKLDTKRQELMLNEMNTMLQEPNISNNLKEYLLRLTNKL

[14] = fluconazole-exposed Candida albicans growth modulators – fluorescence, retest, confirmation (AID 2467); format: functional, cell-based
[15] = biological target: T6, Carboxy-terminal domain RNA polymerase II polypeptide A small phosphatase 1 (Homo sapiens, UniProt Q9GZU7); test: CTDSP1 inhibitors, concentration-response, biochemical, absorbance readout, ultra-high-throughput screen actives (AID 540297); format: functional
T6 sequence (Q9GZU7 whole entry): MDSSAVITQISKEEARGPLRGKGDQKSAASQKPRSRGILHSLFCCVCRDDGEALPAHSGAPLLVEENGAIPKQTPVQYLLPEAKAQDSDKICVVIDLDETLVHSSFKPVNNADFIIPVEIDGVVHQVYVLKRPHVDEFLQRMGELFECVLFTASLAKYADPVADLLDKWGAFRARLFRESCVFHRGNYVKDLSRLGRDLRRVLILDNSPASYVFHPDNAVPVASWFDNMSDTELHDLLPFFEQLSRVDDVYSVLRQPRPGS

[16] = biological target: Bifunctional protein GlmU (Mycobacterium tuberculosis, UniProt P9WMN3); test: Inhibitors of Mycobacterial Glucosamine-1-phosphate acetyl transferase (GlmU). Secondary screen.; parameters: species or system Mycobacterium tuberculosis H37Rv
Sequence of Bifunctional protein GlmU (P9WMN3 whole entry): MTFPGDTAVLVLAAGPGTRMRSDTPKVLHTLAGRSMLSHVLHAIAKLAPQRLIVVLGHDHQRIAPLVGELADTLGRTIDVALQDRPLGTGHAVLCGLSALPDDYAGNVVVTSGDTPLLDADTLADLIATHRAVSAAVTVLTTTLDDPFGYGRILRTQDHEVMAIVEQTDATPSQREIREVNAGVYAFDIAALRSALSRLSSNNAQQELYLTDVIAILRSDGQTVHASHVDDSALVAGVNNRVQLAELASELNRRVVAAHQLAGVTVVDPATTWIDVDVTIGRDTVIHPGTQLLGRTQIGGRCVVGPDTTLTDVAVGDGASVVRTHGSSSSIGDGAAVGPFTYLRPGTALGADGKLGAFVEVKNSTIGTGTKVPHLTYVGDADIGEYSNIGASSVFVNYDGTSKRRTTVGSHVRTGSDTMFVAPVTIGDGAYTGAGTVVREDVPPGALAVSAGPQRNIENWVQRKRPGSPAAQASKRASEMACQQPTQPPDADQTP

[17] = NIH-3T3 fibroblast cytotoxicity, dose response, cytotoxicity control, cell-based, fluorescence, Alamar Blue, secondary assay (AID 2327); format: functional;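 note: NIH-3T3 mouse fibroblasts cultured with fluconazole at 8 µg/mL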
Genome polyprotein = Genome polyprotein (dengue virus type 2, UniProt P29990); test: flavivirus cap methylation enzyme inhibition – biochemical, confirmation dose response, primary screen (AID 588689); format: functional
Sequence of Genome polyprotein (P29990 2492-3391 limits assumed): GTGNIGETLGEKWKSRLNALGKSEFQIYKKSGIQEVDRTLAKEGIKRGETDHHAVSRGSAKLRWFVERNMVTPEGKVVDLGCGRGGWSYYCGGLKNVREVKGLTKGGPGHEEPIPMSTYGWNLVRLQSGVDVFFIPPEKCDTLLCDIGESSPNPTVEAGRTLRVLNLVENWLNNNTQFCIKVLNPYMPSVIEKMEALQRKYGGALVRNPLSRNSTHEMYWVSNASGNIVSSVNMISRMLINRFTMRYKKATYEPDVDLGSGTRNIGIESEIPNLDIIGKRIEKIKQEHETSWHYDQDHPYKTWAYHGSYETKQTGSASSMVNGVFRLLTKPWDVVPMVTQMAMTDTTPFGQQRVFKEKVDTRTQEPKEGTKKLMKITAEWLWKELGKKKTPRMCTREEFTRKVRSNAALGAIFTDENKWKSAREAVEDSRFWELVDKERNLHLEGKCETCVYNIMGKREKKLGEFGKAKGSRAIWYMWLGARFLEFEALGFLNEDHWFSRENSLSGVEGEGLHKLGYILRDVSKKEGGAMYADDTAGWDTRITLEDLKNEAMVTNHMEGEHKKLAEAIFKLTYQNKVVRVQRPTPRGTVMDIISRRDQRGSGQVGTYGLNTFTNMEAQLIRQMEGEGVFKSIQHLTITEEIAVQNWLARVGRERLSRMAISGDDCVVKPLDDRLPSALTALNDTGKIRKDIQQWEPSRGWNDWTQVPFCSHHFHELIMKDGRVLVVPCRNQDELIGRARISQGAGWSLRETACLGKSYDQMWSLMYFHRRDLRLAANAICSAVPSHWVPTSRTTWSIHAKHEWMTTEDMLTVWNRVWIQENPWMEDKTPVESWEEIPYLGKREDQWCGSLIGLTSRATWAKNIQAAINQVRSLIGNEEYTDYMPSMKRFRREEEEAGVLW

NADPH oxidase 1 = NADPH oxidase 1 (Homo sapiens, UniProt Q9Y5S8); test: Late-stage luminescence-based cell-based dose response assay to identify inhibitors of NADPH oxidase 1 (NOX1): Synthesized analogs 3.; format: functional
Sequence of NADPH oxidase 1 (Q9Y5S8 whole entry): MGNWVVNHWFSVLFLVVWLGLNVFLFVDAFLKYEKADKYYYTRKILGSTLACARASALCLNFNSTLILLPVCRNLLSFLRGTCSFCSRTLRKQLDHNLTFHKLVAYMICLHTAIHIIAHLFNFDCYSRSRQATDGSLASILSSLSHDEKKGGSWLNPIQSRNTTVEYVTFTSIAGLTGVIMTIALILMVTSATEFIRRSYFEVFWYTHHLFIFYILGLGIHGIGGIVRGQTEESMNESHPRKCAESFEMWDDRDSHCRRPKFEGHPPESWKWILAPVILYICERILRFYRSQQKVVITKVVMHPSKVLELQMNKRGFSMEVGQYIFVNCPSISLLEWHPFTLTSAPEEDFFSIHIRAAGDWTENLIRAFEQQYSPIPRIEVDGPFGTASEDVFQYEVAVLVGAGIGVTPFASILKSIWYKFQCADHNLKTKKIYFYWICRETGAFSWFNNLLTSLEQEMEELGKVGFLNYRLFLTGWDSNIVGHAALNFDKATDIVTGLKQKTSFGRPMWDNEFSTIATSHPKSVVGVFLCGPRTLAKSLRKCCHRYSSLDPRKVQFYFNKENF

[18] = biological target: Mitogen-activated protein kinase 10 (Homo sapiens, UniProt P53779); test: Dose response biochemical screening assay for inhibitors of c-Jun N-Terminal Kinase 3 (JNK3). [Related pubchem assays: 746 ]
Sequence of Mitogen-activated protein kinase 10 (P53779 whole entry): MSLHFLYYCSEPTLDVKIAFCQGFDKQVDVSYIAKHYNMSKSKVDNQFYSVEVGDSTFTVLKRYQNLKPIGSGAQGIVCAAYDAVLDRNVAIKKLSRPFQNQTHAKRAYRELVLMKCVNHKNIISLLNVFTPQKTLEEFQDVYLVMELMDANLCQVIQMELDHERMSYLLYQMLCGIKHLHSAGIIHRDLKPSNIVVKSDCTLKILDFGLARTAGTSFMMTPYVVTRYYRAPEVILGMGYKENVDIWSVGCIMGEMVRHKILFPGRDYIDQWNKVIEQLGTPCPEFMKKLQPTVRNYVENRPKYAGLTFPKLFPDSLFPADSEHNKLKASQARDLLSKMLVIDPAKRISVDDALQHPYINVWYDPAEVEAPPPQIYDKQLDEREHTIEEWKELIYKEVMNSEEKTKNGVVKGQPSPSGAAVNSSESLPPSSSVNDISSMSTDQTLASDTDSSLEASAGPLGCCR

Coagulation factor XII = biological target: T7, Coagulation factor XII (Homo sapiens, UniProt P00748); format: functional;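 note: activated factor XIIa alpha cleaving a fluorogenic AMC peptide substrate; inhibitor potency from loss of enzyme activity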
T7 sequence (P00748 whole entry): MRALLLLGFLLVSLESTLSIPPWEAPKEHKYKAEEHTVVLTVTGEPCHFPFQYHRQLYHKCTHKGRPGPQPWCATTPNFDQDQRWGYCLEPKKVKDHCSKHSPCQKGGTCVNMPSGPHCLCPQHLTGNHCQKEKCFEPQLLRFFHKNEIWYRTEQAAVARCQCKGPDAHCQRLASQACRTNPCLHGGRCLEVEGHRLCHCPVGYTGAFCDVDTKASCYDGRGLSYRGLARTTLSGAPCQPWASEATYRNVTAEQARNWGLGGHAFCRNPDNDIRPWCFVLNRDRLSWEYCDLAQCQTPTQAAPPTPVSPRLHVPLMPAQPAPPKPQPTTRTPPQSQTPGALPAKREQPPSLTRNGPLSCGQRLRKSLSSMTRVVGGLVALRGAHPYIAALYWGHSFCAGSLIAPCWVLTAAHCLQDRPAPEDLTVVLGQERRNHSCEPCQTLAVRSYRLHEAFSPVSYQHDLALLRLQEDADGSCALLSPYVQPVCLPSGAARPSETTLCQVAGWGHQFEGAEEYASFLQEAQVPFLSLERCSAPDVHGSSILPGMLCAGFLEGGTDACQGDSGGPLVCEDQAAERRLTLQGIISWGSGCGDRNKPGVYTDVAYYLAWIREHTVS

Prothrombin = Prothrombin (Homo sapiens, UniProt P00734); test: Thrombin 1536 HTS Dose Response Confirmation. [Related pubchem assays: 1046 (Thrombin 1536 HTS; hits were confirmed in this assay)]; format: functional

## CCN(C(=O)c1ccc(C(C)(C)C)cc1)c1nnc(Cn2nnc3ccccc32)s1
[1]
  AC50: 2 µM (active)
[2]
  IC50: 7.74 µM (active)
[3]
  IC50: 83.8 µM (not active)
[4]
  AC50: 1.55 µM (active)
[5]
  AC50: 1.35 µM (active)
[6]
  IC50: 3.21 µM (active)

## CNc1ccccc1C(=O)OCC(=O)c1ccccc1
Cytochrome P450 2C19
  AC50: 2 µM (inconclusive)

## CCOC(=O)c1c(NC(=O)CN(C)C2CCN(C)CC2)sc(C(=O)Nc2ccccc2)c1C
[7]
  CC50: 100 µM (active)
[8]
  IC50: 76.9 µM (active)
Vero
  IC50: 24.3 µM (active)

## COc1ccc(OC)c(NC(=O)CCN2CCCC(C)C2)c1 (stereo unspecified)
14-3-3 protein gamma
  IC50: > 50 µM (not active)

## c1ccc(OCCSc2nnnn2-c2ccccc2)cc1
[9]
  EC50: > 50 µM (not active)

## Cc1cc(C(=O)CN(C)Cc2ccco2)c(C)n1Cc1ccccc1
[10]
  EC50: > 30 µM (not active)

## O=C(NCc1ccccc1)c1ccccc1-n1sc2ccccc2c1=O
[11]
  IC50: 12.4 µM (active)

## COCCCNC(=O)c1c(N)n(-c2ccc(S(N)(=O)=O)cc2)c2nc3ccccc3nc12
[12]
  IC50: > 111 µM (not active)
[13]
  IC50: > 5.47 µM (active)

## COC(=O)c1ccc(N2NC(=O)/C(=C/c3ccc(-c4ccc(Cl)c(C(=O)O)c4)o3)C2=O)cc1
Aminopeptidase N
  IC50: 28.6 µM (active)
[14]
  EC50: > 38 µM (not active)
[15]
  IC50: 2.15 µM (active)
[16]
  IC50: 75.8 µM (active)
[17]
  EC50: > 150 µM (inconclusive)
Genome polyprotein
  IC50: 11.9 µM (active)

## CN1c2ccc(Br)cc2Sc2cc(C(=O)c3ccc(N=[N+]=[N-])cc3)ccc21
NADPH oxidase 1
  IC50: 13.7 µM (active)

## CS(=O)(=O)N1CCN(c2ccccc2NC(=O)Cc2ccccc2)CC1
[18]
  IC50: 68.8 µM (not active)

## COc1ccc(/C=N/NC(=O)c2sc3nc(C)cc(C)c3c2N)cc1
Coagulation factor XII
  IC50: > 50 µM (inactive)
Prothrombin
  IC50: > 50 µM (not active)
